Target: T1, recombinant human PDK1 (Homo sapiens, UniProt O15530)
T1 construct: containing amino acids 51-556 of the human PDK1 enzyme; made in house; host or cells: Sf9 insect cells
T1 sequence (O15530 51-556): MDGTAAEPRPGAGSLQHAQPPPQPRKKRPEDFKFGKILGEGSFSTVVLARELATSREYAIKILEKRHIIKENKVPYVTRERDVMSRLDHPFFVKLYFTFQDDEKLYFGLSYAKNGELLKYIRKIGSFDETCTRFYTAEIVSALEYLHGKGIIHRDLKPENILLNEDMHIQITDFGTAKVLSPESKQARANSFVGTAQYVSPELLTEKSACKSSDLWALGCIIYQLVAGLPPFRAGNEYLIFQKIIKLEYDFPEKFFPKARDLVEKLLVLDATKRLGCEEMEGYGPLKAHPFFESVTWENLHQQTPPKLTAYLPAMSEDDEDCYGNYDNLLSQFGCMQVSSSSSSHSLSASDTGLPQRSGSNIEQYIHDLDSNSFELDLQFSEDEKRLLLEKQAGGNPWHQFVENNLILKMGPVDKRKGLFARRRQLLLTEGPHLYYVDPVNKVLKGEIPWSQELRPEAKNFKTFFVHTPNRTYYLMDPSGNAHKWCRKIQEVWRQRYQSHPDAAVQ
Test: PDK1 IMAP fluorescence polarization assay (inhibition of peptide substrate phosphorylation)
Format: biochemical
Details: Table 6; 10 nM PDK1 enzyme, 100 nM peptide substrate, 100 nM PIFtide, 2.5 uM ATP, 1.5 hours

`CN(C)CCOc1ccccc1NC(=O)c1nc(-c2c[nH]c3ccccc23)c[nH]1` [Compound 17, N-[2-[2-(dimethylamino)ethoxy]phenyl]-4-(1H-indol-3-yl)-1H-imidazole-2-carboxamide] showed an IC50 of 0.251 to 1 µM.
`Cc1cc(-c2c[nH]c(C(=O)Nc3cccc(F)c3N3CCC(CN)CC3)n2)ccn1` [Compound 18, N-[2-[4-(aminomethyl)-1-piperidinyl]-3-fluorophenyl]-4-(2-methyl-4-pyridinyl)-1H-imidazole-2-carboxamide] showed an IC50 of 0.001 to 0.05 µM.
`N[C@@H]1CCCN(c2c(F)cccc2NC(=O)c2nc(-c3ccnc(C(F)(F)F)c3)c[nH]2)C1` [Compound 19, N-[2-(3(R)-amino-1-piperidinyl)-3-fluorophenyl]-4-[2-(trifluoromethyl)-4-pyridinyl]-1H-imidazole-2-carboxamide] was tested, and the IC50 was 0.051 to 0.25 µM.
`Nc1cc(-c2c[nH]c(C(=O)Nc3cccc(F)c3N3CCC[C@@H](N)C3)n2)ccn1` [Compound 20, N-[2-(−3(R)-amino-1-piperidinyl)-3-fluorophenyl]-4-(2-amino-4-pyridinyl)-1H-imidazole-2-carboxamide] gave an IC50 of 0.001 to 0.05 µM.
Compound `COc1cc(-c2c[nH]c(C(=O)Nc3cccc(F)c3N3CCC[C@@H](N)C3)n2)ccn1` [Compound 21, N-[2-(3(R)-amino-1-piperidinyl)-3-fluorophenyl]-4-(2-methoxy-4-pyridinyl)-1H-imidazole-2-carboxamide] has an IC50 of 0.051 to 0.25 µM.
In the case of `N[C@@H]1CCCN(c2c(F)cccc2NC(=O)c2nc(C3=CCOCC3)c[nH]2)C1` [Compound 22, N-[2-(3(R)-amino-1-piperidinyl)-3-fluorophenyl]-4-(3,6-dihydro-2h-pyran-4-yl)-1H-imidazole-2-carboxamide], the IC50 is reported as 0.251 to 1 µM.
Compound `N[C@@H]1CCCN(c2c(F)cccc2NC(=O)c2nc(-c3ccnc(C4CC4)c3)c[nH]2)C1` [Compound 23, N-[2-(3(R)-amino-1-piperidinyl)-3-fluorophenyl]-4-(2-cyclopropyl-4-pyridinyl)-1H-imidazole-2-carboxamide] has an IC50 of 0.051 to 0.25 µM.
`Cc1cc(-c2c[nH]c(C(=O)Nc3cccc(F)c3N3CCC[C@@H](N)C3)n2)cc(N)n1` [Compound 24, 4-(2-amino-6-methyl-4-pyridinyl)-N-[2-(3(R)-amino-1-piperidinyl)-3-fluorophenyl]-1H-imidazole-2-carboxamide] gave an IC50 of 0.001 to 0.05 µM.
`N[C@@H]1CCCN(c2c(F)cccc2NC(=O)c2nc(-c3ccnc(O)c3)c[nH]2)C1` [Compound 25, N-[2-(3(R)-amino-1-piperidinyl)-3-fluorophenyl]-4-(2-hydroxy-4-pyridinyl)-1H-imidazole-2-carboxamide] was tested, and the IC50 was 1 to 5 µM.
In the case of `N[C@@H]1CCCN(c2c(F)cccc2NC(=O)c2nc(-c3ccnc(CO)c3)c[nH]2)C1` [Compound 26, N-[2-(3(R)-amino-1-piperidinyl)-3-fluorophenyl]-4-[2-(hydroxymethyl)-4-pyridinyl]-1H-imidazole-2-carboxamide], the IC50 is reported as 0.001 to 0.05 µM.
In the case of `NCC1CCN(c2c(F)cccc2NC(=O)c2nc(-c3ccnc(N)c3)c[nH]2)CC1` [Compound 27, N-[2-[4-(aminomethyl)-1-piperidinyl]-3-fluorophenyl]-4-(2-amino-4-pyridinyl)-1H-imidazole-2-carboxamide], the IC50 is reported as 0.001 to 0.05 µM.
For `NCC1CCN(c2c(NC(=O)c3nc(-c4ccnc(N)c4)c[nH]3)ccc(F)c2F)CC1` [Compound 28, N-[2-[4-(aminomethyl)-1-piperidinyl]-3,4-difluorophenyl]-4-(2-amino-4-pyridinyl)-1H-imidazole-2-carboxamide], the IC50 was 0.051 to 0.25 µM.
In the case of `Cc1cc(-c2c[nH]c(C(=O)Nc3cccc(F)c3N3CCC[C@@H](N)C3)n2)nc(N)n1` [Compound 29, 4-(2-amino-6-methyl-4-pyrimidinyl)-N-[2-(3(R)-amino-1-piperidinyl)-3-fluorophenyl]-1H-imidazole-2-carboxamide], the IC50 is reported as 0.001 to 0.05 µM.
Work on `CCc1cc(-c2c[nH]c(C(=O)Nc3cccc(F)c3N3CCC(CN)CC3)n2)ccn1` [Compound 30, N-[2-[4-(aminomethyl)-1-piperidinyl]-3-fluorophenyl]-4-(2-ethyl-4-pyridinyl)-1H-imidazole-2-carboxamide] yielded an IC50 of 0.001 to 0.05 µM.
`NCC1CCN(c2c(F)cccc2NC(=O)c2nc(-c3cccc(S(N)(=O)=O)c3)c[nH]2)CC1` [Compound 31, N-[2-[4-(aminomethyl)-1-piperidinyl]-3-fluorophenyl]-4-[3-(aminosulfonyl)phenyl]-1H-imidazole-2-carboxamide] was tested, and the IC50 was 0.051 to 0.25 µM.
`CNc1cc(-c2c[nH]c(C(=O)Nc3cccc(F)c3N3CCC(CN)CC3)n2)ccn1` [Compound 32, N-[2-[4-(aminomethyl)-1-piperidinyl]-3-fluorophenyl]-4-[2-(methylamino)-4-pyridinyl]-1H-imidazole-2-carboxamide] gave an IC50 of 0.001 to 0.05 µM.
With `CC(=O)Nc1cc(-c2c[nH]c(C(=O)Nc3cccc(F)c3N3CCC(CN)CC3)n2)ccn1` [Compound 33, 4-[2-(acetylamino)-4-pyridinyl]-N-[2-[4-(aminomethyl)-1-piperidinyl]-3-fluorophenyl]-1H-imidazole-2-carboxamide] the IC50 was 0.051 to 0.25 µM.
With `NCC1CCN(c2c(F)cccc2NC(=O)c2nc(-c3cccc(Cl)c3)c[nH]2)CC1` [Compound 34, N-[2-[4-(aminomethyl)-1-piperidinyl]-3-fluorophenyl]-4-(3-chlorophenyl)-1H-imidazole-2-carboxamide] the IC50 was 0.051 to 0.25 µM.
Compound `NCC1CCN(c2c(F)cccc2NC(=O)c2nc(-c3ccnc(NCc4ccccc4)c3)c[nH]2)CC1` [Compound 35, N-[2-[4-(aminomethyl)-1-piperidinyl]-3-fluorophenyl]-4-[2-[(phenylmethyl)amino]-4-pyridinyl]-1H-imidazole-2-carboxamide] has an IC50 of 0.001 to 0.05 µM.
With `CN(C)c1cc(-c2c[nH]c(C(=O)Nc3cccc(F)c3N3CCC(CN)CC3)n2)ccn1` [Compound 36, N-[2-[4-(aminomethyl)-1-piperidinyl]-3-fluorophenyl]-4-[2-(dimethylamino)-4-pyridinyl]-1H-imidazole-2-carboxamide] the IC50 was 0.251 to 1 µM.
With `Cc1ccc(C)c(-c2c[nH]c(C(=O)Nc3cccc(F)c3N3CCC(CN)CC3)n2)c1` [Compound 37, N-[2-[4-(aminomethyl)-1-piperidinyl]-3-fluorophenyl]-4-(2,5-dimethylphenyl)-1H-imidazole-2-carboxamide] the IC50 was 1 to 5 µM.
With `N[C@@H]1CCCN(c2c(F)cccc2NC(=O)c2nc(-c3ccc(F)cc3F)c[nH]2)C1` [Compound 38, N-[2-(3(R)-amino-1-piperidinyl)-3-fluorophenyl]-4-(2,4-difluorophenyl)-1H-imidazole-2-carboxamide] the IC50 was 0.251 to 1 µM.
`N[C@@H]1CCCN(c2c(F)cccc2NC(=O)c2nc(-c3ccnc(-n4cccn4)c3)c[nH]2)C1` [Compound 39, N-[2-(3(R)-amino-1-piperidinyl)-3-fluorophenyl]-4-[2-(1H-pyrazol-1-yl)-4-pyridinyl]-1H-imidazole-2-carboxamide] was tested, and the IC50 was 0.251 to 1 µM.
`CN(C)CC1CCN(c2ccccc2NC(=O)c2nc(-c3ccnc(N)c3)c[nH]2)CC1` [Compound 40, 4-(2-amino-4-pyridinyl)-N-[2-[4-[(dimethylamino)methyl]-1-piperidinyl]phenyl]-1H-imidazole-2-carboxamide] was tested, and the IC50 was 0.251 to 1 µM.
With `NCC1CCN(c2c(F)cccc2NC(=O)c2nc(-c3cccc(CCO)c3)c[nH]2)CC1` [Compound 41, N-[2-[4-(aminomethyl)-1-piperidinyl]-3-fluorophenyl]-4-[3-(2-hydroxyethyl)phenyl]-1H-imidazole-2-carboxamide] the IC50 was 0.051 to 0.25 µM.
With `NCC1CCN(c2c(F)cccc2NC(=O)c2nc(-c3ccnc(NC4CC4)c3)c[nH]2)CC1` [Compound 42, N-[2-[4-(aminomethyl)-1-piperidinyl]-3-fluorophenyl]-4-[2-(cyclopropylamino)-4-pyridinyl]-1H-imidazole-2-carboxamide] the IC50 was 0.051 to 0.25 µM.
With `Cc1cc(-c2c[nH]c(C(=O)Nc3cccc(F)c3N3CCC4CCNC4C3)n2)ccn1` (stereo not shown) [Compound 43, N-[3-fluoro-2-(octahydro-6h-pyrrolo[2,3-c]pyridin-6-yl)phenyl]-4-(2-methyl-4-pyridinyl)-1H-imidazole-2-carboxamide] the IC50 was 0.051 to 0.25 µM.
Work on `N#Cc1cccc(-c2c[nH]c(C(=O)Nc3cccc(F)c3N3CCC(CN)CC3)n2)n1` [Compound 44, N-[2-[4-(aminomethyl)-1-piperidinyl]-3-fluorophenyl]-4-(6-cyano-2-pyridinyl)-1H-imidazole-2-carboxamide] yielded an IC50 of 0.251 to 1 µM.
Compound `CC(=O)c1ccc(-c2c[nH]c(C(=O)Nc3cccc(F)c3N3CCC(CN)CC3)n2)s1` [Compound 45, 4-(5-acetyl-2-thienyl)-N-[2-[4-(aminomethyl)-1-piperidinyl]-3-fluorophenyl]-1H-imidazole-2-carboxamide] has an IC50 of 1 to 5 µM.
Compound `Cc1cc(-c2c[nH]c(C(=O)Nc3cccc(F)c3N3CCC4(CCCNC4)CC3)n2)ccn1` [Compound 46, N-[2-(2,9-diazaspiro[5,5]undec-9-yl)-3-fluorophenyl]-4-(2-methyl-4-pyridinyl)-1H-imidazole-2-carboxamide] has an IC50 of 0.051 to 0.25 µM.
`Cc1cc(-c2c[nH]c(C(=O)Nc3cccc(F)c3N3CCC(CN)CC3)n2)nc(N)n1` [Compound 47, N-[2-[4-(aminomethyl)-1-piperidinyl]-3-fluorophenyl]-4-(2-amino-6-methyl-4-pyrimidinyl)-1H-imidazole-2-carboxamide] showed an IC50 of 0.001 to 0.05 µM.
